Reference: patent US11970494B2, “6-heteroaryloxy benzimidazoles and azabenzimidazoles as JAK2 inhibitors” (Ajax Therapeutics, Inc., priority 2021, dated 2024)

Assays:
Caco2 Permeability Assay = format: in vitro ADME; conditions: human; for efflux ratio at 2 h, 5 μM: pH 7.4, Caco-2, 5 μM, read-out: Efflux Ratio (ER); for Papp A→B at 2 h, 5 μM: pH 7.4, Caco-2, apical to basolateral
Procedure: Preparation of Caco-2 Cells: 50 μL and 25 mL of cell culture medium are added to each well of a Transwell® insert and reservoir, respectively. Then, the HTS Transwell® plates are incubated at 37° C., 5% CO2 for 1 hour before cell seeding. Caco-2 cell cells are diluted to 6.86×10^5 cells/mL with culture medium, and 50 μL of cell suspension are dispensed into the filter well of the 96-well HTS Transwell® plate. Cells are cultivated for 14-18 days in a cell culture incubator at 37° C., 5% CO2, 95% relative humidity. Cell culture medium is replaced every other day, beginning no later than 24 hours after initial plating.
Preparation of Stock Solutions: 10 mM stock solutions of test compounds are prepared in DMSO. The stock solutions of positive controls are prepared in DMSO at the concentration of 10 mM. Digoxin and propranolol are used as control compounds in this assay.
Assessment of Cell Monolayer Integrity: Medium is removed from the reservoir and each Transwell® insert and is replaced with prewarmed fresh culture medium. Transepithelial electrical resistance (TEER) across the monolayer is measured using Millicell Epithelial Volt-Ohm measuring system (Millipore, USA). The Plate is returned to the incubator once the measurement is done. The TEER value is calculated according to the following equation: TEER measurement (ohms)×Area of membrane (cm^2)=TEER value (ohm⋅cm^2). A TEER value greater than 230 ohm⋅cm^2 indicates a well-qualified Caco-2 monolayer.
Assay Procedure: The Caco-2 plate is removed from the incubator and washed twice with pre-warmed HBSS (10 mM HEPES, pH 7.4), and then incubated at 37° C. for 30 minutes. The stock solutions of control compounds are diluted in DMSO to get 1 mM solutions and then diluted with HBSS (10 mM HEPES, pH 7.4) to get 5 μM working solutions. The stock solutions of the test compounds are diluted in DMSO to get 1 mM solutions and then diluted with HBSS (10 mM HEPES and 4% BSA, pH 7.4) to get 5 μM working solutions. The final concentration of DMSO in the incubation system is 0.5%. To determine the rate of drug transport in the apical to basolateral direction. 75 μL of 5 μM working solutions of test compounds are added to the Transwell® insert (apical compartment) and the wells in the receiver plate (basolateral compartment) are filled with 235 μL of HBSS (10 mM HEPES and 4% BSA, pH 7.4). To determine the rate of drug transport in the basolateral to apical direction, 235 μL of 5 μM working solutions of test compounds are added to the receiver plate wells (basolateral compartment) and then the Transwell® inserts (apical compartment) are filled with 75 μL of HBSS (10 mM HEPES and 4% BSA, pH 7.4). Time 0 samples are prepared by transferring 50 μL of 5 μM working solution to wells of the 96-deepwell plate, followed by the addition of 200 μL cold methanol containing appropriate internal standards (IS). The plates are incubated at 37° C. for 2 hours. At the end of the incubation, 50 μL samples from donor sides (apical compartment for Ap→*Bl flux, and basolateral compartment for Bl→Ap) and receiver sides (basolateral compartment for Ap→Bl flux, and apical compartment for Bl→Ap) are transferred to wells of a new 96-well plate, followed by the addition of 4 volume of cold acetonitrile or methanol containing appropriate internal standards (IS). Samples are vortexed for 5 minutes and then centrifuged at 3,220 g for 40 minutes. An aliquot of 100 μL of the supernatant is mixed with an appropriate volume of ultra-pure water before LC-MS/MS analysis. To determine the Lucifer Yellow leakage after 2 hour transport period, stock solution of Lucifer yellow is prepared in ultra-pure water and diluted with HBSS (10 mM HEPES, pH 7.4) to reach the final concentration of 100 μM. 100 μL of the Lucifer yellow solution is added to each Transwell® insert (apical compartment), followed by filling the wells in the receiver plate (basolateral compartment) with 300 μL of HBSS (10 mM HEPES, pH 7.4). […]

JAK1 = molecular target: T1, JAK1 (Homo sapiens, UniProt P23458); assay: JAK Family Selectivity Assay: JAK1 vs JAK2 binding affinity; conditions: Kd JAK1 over Kd JAK2
T1 construct: made in house; host or cells: T7 phage in BL21-derived E. coli or HEK-293 cells
Procedure: Provided compounds are evaluated for selectivity by comparing their JAK2 binding affinity (Kd) in the above JAK2 Binding Assay with their binding affinity (Kd) for one or more other kinases. Binding affinity for other kinases is determined as follows: Kinase-tagged T7 phage strains are prepared in an E. coli host derived from the BL21 strain. E. coli are grown to log-phase and infected with T7 phage and incubated with shaking at 32° C. until lysis. The lysates are centrifuged and filtered to remove cell debris. The remaining kinases are produced in HEK-293 cells and subsequently tagged with DNA for qPCR detection. Streptavidin-coated magnetic beads are treated with biotinylated small molecule ligands for 30 minutes at room temperature to generate affinity resins for kinase assays. The liganded beads are blocked with excess biotin and washed with blocking buffer (SeaBlock (Pierce), 1% BSA, 0.05% Tween 20, 1 mM DTT) to remove unbound ligand and to reduce non-specific binding. Binding reactions are assembled by combining kinases, liganded affinity beads, and test compounds in 1× binding buffer (20% SeaBlock, 0.17×PBS, 0.05% Tween 20, 6 mM DTT). Test compounds are prepared as 111× stocks in 100% DMSO. Kds are determined using an 11-point 3-fold compound dilution series with three DMSO control points. All compounds for Kd measurements are distributed by acoustic transfer (non-contact dispensing) in 100% DMSO. The compounds are then diluted directly into the assays such that the final concentration of DMSO is 0.9%. All reactions are performed in polypropylene 384-well plate. Each has a final volume of 0.02 ml. The assay plates are incubated at room temperature with shaking for 1 hour and the affinity beads are washed with wash buffer (1×PBS, 0.05% Tween 20). The beads are then re-suspended in elution buffer (1× PBS, 0.05% Tween 20, 0.5 μM non-biotinylated affinity ligand) and incubated at room temperature with shaking for 30 minutes. The kinase concentration in the eluates is measured by qPCR. […] In some embodiments, provided compounds may be JAK2-selective over one or more of the following kinases: JAK1, JAK3, and Tyk2.

T1 sequence (P23458 whole entry): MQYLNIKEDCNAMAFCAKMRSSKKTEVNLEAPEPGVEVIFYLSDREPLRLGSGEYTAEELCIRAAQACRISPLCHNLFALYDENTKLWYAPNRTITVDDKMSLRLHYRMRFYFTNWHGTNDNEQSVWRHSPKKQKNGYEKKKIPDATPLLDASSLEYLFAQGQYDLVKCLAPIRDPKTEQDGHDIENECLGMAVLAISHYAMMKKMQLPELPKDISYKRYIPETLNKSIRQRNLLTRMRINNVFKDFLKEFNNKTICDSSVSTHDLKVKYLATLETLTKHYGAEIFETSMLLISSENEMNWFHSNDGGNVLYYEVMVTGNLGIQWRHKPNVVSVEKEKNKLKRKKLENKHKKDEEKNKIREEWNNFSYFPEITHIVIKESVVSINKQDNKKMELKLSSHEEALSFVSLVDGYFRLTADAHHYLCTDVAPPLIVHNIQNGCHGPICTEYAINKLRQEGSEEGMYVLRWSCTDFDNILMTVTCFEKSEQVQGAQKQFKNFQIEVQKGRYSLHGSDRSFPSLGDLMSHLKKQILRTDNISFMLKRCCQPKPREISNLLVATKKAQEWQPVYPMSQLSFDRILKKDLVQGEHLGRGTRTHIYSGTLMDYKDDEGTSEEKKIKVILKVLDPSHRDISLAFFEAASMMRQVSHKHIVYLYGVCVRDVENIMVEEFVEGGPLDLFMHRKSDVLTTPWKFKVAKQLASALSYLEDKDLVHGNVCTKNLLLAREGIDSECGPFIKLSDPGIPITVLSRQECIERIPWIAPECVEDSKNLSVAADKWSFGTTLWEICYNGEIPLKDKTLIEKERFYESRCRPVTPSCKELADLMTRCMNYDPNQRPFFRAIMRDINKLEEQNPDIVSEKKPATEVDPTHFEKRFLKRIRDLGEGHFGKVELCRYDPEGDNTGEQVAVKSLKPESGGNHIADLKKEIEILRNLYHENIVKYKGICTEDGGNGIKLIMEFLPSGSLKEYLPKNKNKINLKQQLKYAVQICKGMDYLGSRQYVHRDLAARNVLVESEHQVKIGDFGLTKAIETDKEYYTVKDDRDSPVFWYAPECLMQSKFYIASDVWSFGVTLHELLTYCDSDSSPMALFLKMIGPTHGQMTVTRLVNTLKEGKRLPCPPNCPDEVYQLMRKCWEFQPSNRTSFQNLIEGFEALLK

For `COC(=O)Nc1cc(Oc2cnc3nc(Nc4cc(C(F)(F)F)cn(C)c4=O)n(C)c3c2C#N)ccn1` [Example I-3, Methyl (4-((7-cyano-1-methyl-2-((1-methyl-2-oxo-5-(trifluoromethyl)-1,2-dihydropyridin-3-yl)amino)-1H-imidazo[4,5-b]pyridin-6-yl)oxy)pyridin-2-yl)carbamate], the efflux ratio at 2 h, 5 μM (Caco2 Permeability Assay) was no more than 2, the Papp A→B at 2 h, 5 μM (Caco2 Permeability Assay) was 12 ×10⁻⁶ cm/s and the “JAK1/JAK2 Kd/Kd ratio” value (JAK1) was “A (Kd/Kd ratio ≥1000)”.

In the case of `CN(C)C(=O)Nc1cc(Oc2cnc3nc(Nc4cc(C(F)(F)F)cn(C)c4=O)n(C)c3c2C#N)ccn1` [Example I-4, 3-(4-((7-cyano-1-methyl-2-((1-methyl-2-oxo-5-(trifluoromethyl)-1,2-dihydropyridin-3-yl)amino)-1H-imidazo[4,5-b]pyridin-6-yl)oxy)pyridin-2-yl)-1,1-dimethylurea], the efflux ratio at 2 h, 5 μM (Caco2 Permeability Assay) was 2 to 5, the Papp A→B at 2 h, 5 μM (Caco2 Permeability Assay) was 7 ×10⁻⁶ cm/s and the “JAK1/JAK2 Kd/Kd ratio” value (JAK1) was “B (Kd/Kd ratio <1000 and ≥300)”.

For `Cn1cc(C(F)(F)F)cc(Nc2nc3ncc(Oc4ccnc(NC(=O)N5CCC5)c4)c(C#N)c3n2C)c1=O` [Example I-7, N-(4-((7-cyano-1-methyl-2-((1-methyl-2-oxo-5-(trifluoromethyl)-1,2-dihydropyridin-3-yl)amino)-1H-imidazo[4,5-b]pyridin-6-yl)oxy)pyridin-2-yl)azetidine-1-carboxamide], the efflux ratio at 2 h, 5 μM (Caco2 Permeability Assay) was 2 to 5, the Papp A→B at 2 h, 5 μM (Caco2 Permeability Assay) was 6 ×10⁻⁶ cm/s and the “JAK1/JAK2 Kd/Kd ratio” value (JAK1) was “A (Kd/Kd ratio ≥1000)”.

For `CO[C@H]1CCN(C(=O)Nc2cc(Oc3cnc4nc(Nc5cc(C(F)(F)F)cn(C)c5=O)n(C)c4c3C#N)ccn2)C1` [Example I-14, (S)-N-(4-((7-cyano-1-methyl-2-((1-methyl-2-oxo-5-(trifluoromethyl)-1,2-dihydropyridin-3-yl)amino)-1H-imidazo[4,5-b]pyridin-6-yl)oxy)pyridin-2-yl)-3-methoxypyrrolidine-1-carboxamide], the efflux ratio at 2 h, 5 μM (Caco2 Permeability Assay) was 2 to 5, the Papp A→B at 2 h, 5 μM (Caco2 Permeability Assay) was 4 ×10⁻⁶ cm/s and the “JAK1/JAK2 Kd/Kd ratio” value (JAK1) was “A (Kd/Kd ratio ≥1000)”.

With `Cn1cc(C(F)(F)F)cc(Nc2nc3ncc(Oc4ccnc(NC(=O)OCCN5CCOCC5)c4)c(C#N)c3n2C)c1=O` [Example I-15, 2-Morpholinoethyl(4-((7-cyano-1-methyl-2-((1-methyl-2-oxo-5-(trifluoromethyl)-1,2-dihydropyridin-3-yl)amino)-1H-imidazo[4,5-b]pyridin-6-yl)oxy)pyridin-2-yl)carbamate] the efflux ratio at 2 h, 5 μM (Caco2 Permeability Assay) was 2 to 5, the Papp A→B at 2 h, 5 μM (Caco2 Permeability Assay) was 4 ×10⁻⁶ cm/s and the “JAK1/JAK2 Kd/Kd ratio” value (JAK1) was “B (Kd/Kd ratio <1000 and ≥300)”.

With `Cn1cc(C(F)(F)F)cc(Nc2nc3ncc(Oc4ccnc(NC(=O)O[C@@H]5CCOC5)c4)c(C#N)c3n2C)c1=O` [Example I-18, (R)-Tetrahydrofuran-3-yl(4-((7-cyano-1-methyl-2-((1-methyl-2-oxo-5-(trifluoromethyl)-1,2-dihydropyridin-3-yl)amino)-1H-imidazo[4,5-b]pyridin-6-yl)oxy)pyridin-2-yl)carbamate] the efflux ratio at 2 h, 5 μM (Caco2 Permeability Assay) was 2 to 5, the Papp A→B at 2 h, 5 μM (Caco2 Permeability Assay) was 2 ×10⁻⁶ cm/s and the “JAK1/JAK2 Kd/Kd ratio” value (JAK1) was “C (Kd/Kd ratio <300 and ≥100)”.

For `COC1CN(C(=O)Nc2cc(Oc3cnc4nc(Nc5cc6n(n5)CCCC6(F)F)n(C)c4c3C#N)ccn2)C1` [Example I-26, N-(4-((7-cyano-2-((4,4-difluoro-4,5,6,7-tetrahydropyrazolo[1,5-a]pyridin-2-yl)amino)-1-methyl-1H-imidazo[4,5-b]pyridin-6-yl)oxy)pyridin-2-yl)-3-methoxyazetidine-1-carboxamide], the efflux ratio at 2 h, 5 μM (Caco2 Permeability Assay) was 5 to 10 and the Papp A→B at 2 h, 5 μM (Caco2 Permeability Assay) was 2 ×10⁻⁶ cm/s.

Compound `Cn1c(Nc2cc3n(n2)CCOC3(C)C)nc2ncc(Oc3ccnc(NC(=O)O[C@@H]4CCOC4)c3)c(C#N)c21` [Example I-48, (R)-Tetrahydrofuran-3-yl(4-((7-cyano-2-((4,4-dimethyl-6,7-dihydro-4H-pyrazolo[5,1-c][1,4]oxazin-2-yl)amino)-1-methyl-1H-imidazo[4,5-b]pyridin-6-yl)oxy)pyridin-2-yl)carbamate] has an efflux ratio at 2 h, 5 μM (Caco2 Permeability Assay) of 5 to 10 and a Papp A→B at 2 h, 5 μM (Caco2 Permeability Assay) of 2 ×10⁻⁶ cm/s.

Compound `CN(C)C(=O)Nc1cc(Oc2cnc3nc(Nc4cc5n(n4)CCC54CCC4)n(C)c3c2C#N)ccn1` [Example I-56, 3-(4-((7-cyano-2-((5′,6′-dihydrospiro[cyclobutane-1,4′-pyrrolo[1,2-b]pyrazol]-2′-yl)amino)-1-methyl-1H-imidazo[4,5-b]pyridin-6-yl)oxy)pyridin-2-yl)-1,1-dimethylurea] has an efflux ratio at 2 h, 5 μM (Caco2 Permeability Assay) of no more than 2 and a Papp A→B at 2 h, 5 μM (Caco2 Permeability Assay) of 5 ×10⁻⁶ cm/s.

In the case of `COC(=O)Nc1cc(Oc2cnc3nc(Nc4cc5n(n4)CCC54CCC4)n(C)c3c2C#N)ccn1` [Example I-57, methyl(4-((7-cyano-2-((5′,6′-dihydrospiro[cyclobutane-1,4′-pyrrolo[1,2-b]pyrazol]-2′-yl)amino)-1-methyl-1H-imidazo[4,5-b]pyridin-6-yl)oxy)pyridin-2-yl)carbamate], the efflux ratio at 2 h, 5 μM (Caco2 Permeability Assay) was no more than 2 and the Papp A→B at 2 h, 5 μM (Caco2 Permeability Assay) was 5 ×10⁻⁶ cm/s.

In the case of `CC(=O)Nc1cc(Oc2cnc3nc(Nc4cc5n(n4)CCCC54CC4)n(C)c3c2C#N)ccn1` [Example I-114, N-(4-((7-cyano-2-((6′,7′-dihydro-5′H-spiro[cyclopropane-1,4′-pyrazolo[1,5-a]pyridin]-2′-yl)amino)-1-methyl-1H-imidazo[4,5-b]pyridin-6-yl)oxy)pyridin-2-yl)acetamide], the efflux ratio at 2 h, 5 μM (Caco2 Permeability Assay) was no more than 2 and the Papp A→B at 2 h, 5 μM (Caco2 Permeability Assay) was 4 ×10⁻⁶ cm/s.

With `CC(=O)Nc1cc(Oc2cnc3nc(Nc4cc5n(n4)CCOCC5(C)C)n(C)c3c2C#N)ccn1` [Example I-118, N-(4-((7-cyano-2-((4,4-dimethyl-4,5,7,8-tetrahydropyrazolo[1,5-d][1,4]oxazepin-2-yl)amino)-1-methyl-1H-imidazo[4,5-b]pyridin-6-yl)oxy)pyridin-2-yl)acetamide] the efflux ratio at 2 h, 5 μM (Caco2 Permeability Assay) was 2 to 5 and the Papp A→B at 2 h, 5 μM (Caco2 Permeability Assay) was 5 ×10⁻⁶ cm/s.
